Measurements from US11512053B2, “Arginine methyltransferase inhibitors and uses thereof” (priority 2013, dated 2022).
Counter-ions that a name gives are not always drawn. Like-named read-outs stand apart in the source and are kept apart here.

Legend:
[1] = target: full-length human PRMT1 isoform 1 (GST-tagged) (Homo sapiens, UniProt Q99873); test: PRMT1 Biochemical Assay (3H-SAM Flashplate, peptide substrate)
Outline: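 Tritiated methyl transfer from 3H-SAM onto biotinylated peptide, captured on streptavidin Flashplates and counted. Baculovirus-expressed GST-PRMT1 and compound were preincubated 30 min at room temperature in Bicine buffer pH 7.6. Cold SAM at 300 uM final ended the reaction.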

[2] = target: full-length human PRMT8 isoform 1 (Homo sapiens, UniProt Q9NR22); test: PRMT8 Biochemical Assay (3H-SAM Flashplate, peptide substrate); conditions: read-out: Biochemical IC50 PRMT8
Chain of full-length human PRMT8 isoform 1 (Q9NR22 whole entry, canonical isoform): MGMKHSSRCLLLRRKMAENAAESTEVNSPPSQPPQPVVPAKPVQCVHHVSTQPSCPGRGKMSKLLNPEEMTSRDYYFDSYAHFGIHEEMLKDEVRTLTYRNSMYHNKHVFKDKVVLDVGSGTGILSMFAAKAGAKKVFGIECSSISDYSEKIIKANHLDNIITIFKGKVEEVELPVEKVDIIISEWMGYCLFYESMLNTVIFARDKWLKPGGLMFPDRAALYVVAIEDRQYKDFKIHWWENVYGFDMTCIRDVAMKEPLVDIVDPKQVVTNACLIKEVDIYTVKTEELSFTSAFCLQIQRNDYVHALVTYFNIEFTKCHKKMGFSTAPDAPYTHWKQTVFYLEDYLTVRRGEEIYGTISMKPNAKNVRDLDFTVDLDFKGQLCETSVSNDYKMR
Outline: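 Scintillation Flashplate capture of biotinylated histone H4 (31-45) peptide (150 nM) methylated by 1.5 nM PRMT8 using 3H-SAM (50 nM) with unlabelled SAM (550 nM); enzyme and compound preincubated 30 min, room temperature, in Bicine pH 7.6 buffer with TCEP, BSG, Tween 20 and 2% DMSO. Stopped with excess cold SAM (400 uM); IC50 from % inhibition, min control 1 mM SAH.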

[3] = single experiment or average of multiple experiments

Chain of full-length human PRMT1 isoform 1 (GST-tagged) (Q99873 with tags, fused parts or gaps): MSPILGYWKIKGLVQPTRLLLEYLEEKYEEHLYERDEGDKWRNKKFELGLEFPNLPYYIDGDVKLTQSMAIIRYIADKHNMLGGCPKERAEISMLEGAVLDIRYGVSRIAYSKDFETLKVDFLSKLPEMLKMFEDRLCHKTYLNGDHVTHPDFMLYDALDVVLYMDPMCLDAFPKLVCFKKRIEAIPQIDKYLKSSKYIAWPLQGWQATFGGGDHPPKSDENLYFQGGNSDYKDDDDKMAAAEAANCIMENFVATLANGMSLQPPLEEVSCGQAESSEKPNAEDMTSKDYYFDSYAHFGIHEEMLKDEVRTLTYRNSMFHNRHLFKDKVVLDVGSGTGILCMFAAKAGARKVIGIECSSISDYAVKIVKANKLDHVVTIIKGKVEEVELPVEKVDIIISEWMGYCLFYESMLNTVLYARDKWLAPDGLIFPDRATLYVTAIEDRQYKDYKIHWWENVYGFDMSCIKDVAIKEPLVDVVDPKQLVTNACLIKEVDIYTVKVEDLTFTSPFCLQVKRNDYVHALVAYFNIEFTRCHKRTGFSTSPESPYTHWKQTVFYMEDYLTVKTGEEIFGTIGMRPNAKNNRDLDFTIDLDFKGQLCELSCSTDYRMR

## CNCCN(C)Cc1c[nH]nc1C1CCC(Oc2ccccc2)CC1 (centres unmarked) [Compound 67]
[1]
  IC50: < 100 nM
[1]; [3]
  IC50: 7.8 nM
[2]
  IC50: < 100 nM
[2]; [3]
  IC50: 11.9 nM

## CCC(CC)OC1CCC(c2n[nH]cc2CN(C)CCNC)CC1 (centres unmarked) [Compound 70]
[1]
  IC50: < 100 nM
[1]; [3]
  IC50: 9.2 nM
[2]
  IC50: < 100 nM
[2]; [3]
  IC50: 24.2 nM

## CNCCN(C)Cc1c[nH]nc1C1CC(COC)C(C)(C)C(COC)C1 (centres unmarked) [Compound 86]
[1]
  IC50: 1010 to 3000 nM
[1]; [3]
  IC50: 1940 nM
[2]
  IC50: 3010 to 10000 nM
[2]; [3]
  IC50: 3970 nM

## CCOCC1CC(c2n[nH]cc2CN(C)CCNC)CC(COCC)C1(C)C (centres unmarked) [Compound 87]
[1]
  IC50: 101 to 1000 nM
[1]; [3]
  IC50: 564 nM
[2]
  IC50: 1010 to 3000 nM
[2]; [3]
  IC50: 1010 nM

## CNCCN(C)Cc1c[nH]nc1C1CCC(C)(C)C(C(=O)NCC(C)C)C1 (centres unmarked) [Compound 90]
[1]
  IC50: < 100 nM
[1]; [3]
  IC50: 34.4 nM
[2]
  IC50: 101 to 1000 nM
[2]; [3]
  IC50: 117 nM

## CNCCN(C)Cc1c[nH]nc1C1CCC(C)(C)C(C(=O)NCCC(C)C)C1 (centres unmarked) [Compound 91]
[1]
  IC50: < 100 nM
[1]; [3]
  IC50: 16.7 nM
[2]
  IC50: < 100 nM
[2]; [3]
  IC50: 29 nM

## CNCCN(C)Cc1c[nH]nc1C1CCC(C)(C)C(C(=O)NCc2ccccc2)C1 (centres unmarked) [Compound 92]
[1]
  IC50: < 100 nM
[1]; [3]
  IC50: 20.9 nM
[2]
  IC50: < 100 nM
[2]; [3]
  IC50: 42.1 nM

## CNCCN(C)Cc1c[nH]nc1C1CCC(C)(C)C(C(=O)NCCCOC)C1 (centres unmarked) [Compound 93]
[1]
  IC50: < 100 nM
[1]; [3]
  IC50: 31.3 nM
[2]
  IC50: < 100 nM
[2]; [3]
  IC50: 88.1 nM

## CNCCN(C)Cc1c[nH]nc1C1CCC(C)(C)C(COCC(C)C)C1 (centres unmarked) [Compound 95]
[1]
  IC50: < 100 nM
[1]; [3]
  IC50: 9.35 nM
[2]
  IC50: < 100 nM
[2]; [3]
  IC50: 18.9 nM

## CNCCN(C)Cc1c[nH]nc1[C@H]1CCC(C)(C)[C@@H](C(=O)NCCOC)C1 [Compound 268]
[1]
  IC50: < 100 nM
[1]; [3]
  IC50: 68.6 nM
[2]
  IC50: 101 to 1000 nM
[2]; [3]
  IC50: 210 nM

## CNCCN(C)Cc1c[nH]nc1[C@@H]1CCC(C)(C)[C@@H](C(=O)NCCOC)C1 [Compound 269]
[1]
  IC50: < 100 nM
[1]; [3]
  IC50: 51.3 nM
[2]
  IC50: 101 to 1000 nM
[2]; [3]
  IC50: 155 nM

## CNCCN(C)Cc1c[nH]nc1[C@H]1CCC(C)(C)[C@@H](C(=O)NCCCOC)C1 [Compound 270]
[1]
  IC50: < 100 nM
[1]; [3]
  IC50: 62.5 nM
[2]
  IC50: 101 to 1000 nM
[2]; [3]
  IC50: 204 nM

## CNCCN(C)Cc1c[nH]nc1[C@@H]1CCC(C)(C)[C@@H](C(=O)NCCCOC)C1 [Compound 271, (1S,5R)—N-(3-methoxypropyl)-2,2-dimethyl-5-[4-({methyl[2-(methylamino)ethyl]amino}methyl)-1H-pyrazol-3-yl]cyclohexane-1-carboxamide]
[1]
  IC50: < 100 nM
[1]; [3]
  IC50: 37.1 nM
[2]
  IC50: < 100 nM
[2]; [3]
  IC50: 100 nM

## CNCCN(C)Cc1c[nH]nc1C1CCC(C)(C)[C@H](OCCCOC)C1 (some centres unmarked) [Compound 272]
[1]
  IC50: < 100 nM
[1]; [3]
  IC50: 12.4 nM
[2]
  IC50: < 100 nM
[2]; [3]
  IC50: 25.8 nM

## CNCCN(C)Cc1c[nH]nc1C1CCC(C)(C)[C@H](OCC2CCOCC2)C1 (stereo partly drawn) [Compound 273, ({3-[(3R)-4,4-dimethyl-3-(oxan-4-ylmethoxy)cyclohexyl]-1H-pyrazol-4-yl}methyl)(methyl)[2-(methylamino)ethyl]amine]
[1]
  IC50: < 100 nM
[1]; [3]
  IC50: 11.4 nM
[2]
  IC50: < 100 nM
[2]; [3]
  IC50: 22.6 nM

## CNCCN(C)Cc1ccnn1C1CCC2(CC1)CC(C)(C)CO2 (centres unmarked) [Compound 274, trifluoroacetate]
[1]
  IC50: < 100 nM
[1]; [3]
  IC50: 8.19 nM
[2]
  IC50: < 100 nM
[2]; [3]
  IC50: 11.9 nM

## CNCCN(C)Cc1ccnn1C1CCC2(CCCC2)CC1 [Compound 275, Methyl[2-(methylamino)ethyl][(1-[spiro[4.5]decan-8-yl]-1H-pyrazol-5-yl)methyl]amine trifluoroacetate]
[1]
  IC50: < 100 nM
[1]; [3]
  IC50: 4.62 nM
[2]
  IC50: < 100 nM
[2]; [3]
  IC50: 10.4 nM
